According to ChEMBL document CHEMBL5584321, “Chemoenzymatic Synthesis of DNP-Functionalized FGFR1-Binding Peptides as Novel Peptidomimetic Immunotherapeutics for Treating Lung Cancer” (J Med Chem, 2024):
Active and inactive are the calls of the source. The calls are words filed in the database; no cut-off is given here. Where a SMILES comes first, the peptide text is derived from it. The star is where a group is joined. X1 = O=[N+]([O-])c1ccc(OCCOCCOCCOCCOCCOCCN*)c([N+](=O)[O-])c1

Legend:
NCI-H1581 = test: Induction of cell lysis in human NCI-H1581 cells at 1 uM incubated for 1 hr by complement dependent cytotoxicity based CCK-8 assay relative to control; format: functional
[1] = Toxicity in BALB/c mouse xenografted with human NCI-H1581 cells assessed as change in body weight at 20 mg/kg,SC administrated once daily for 12 days; format: organism-based; conditions: in vivo, 288 h, time 12 day
[2] = Tmax in immunized Sprague-Dawley rat at 1.5 mg/kg,SC administration measured upto 24 hrs by fluorescence based microplate reader assay; format: ADME, organism-based; conditions: in vivo
L6 [3] = test: Binding affinity to human full-length wild type FGFR1c stably expressed in rat L6 cells assessed as increase in fluorescence signal by antibody recruiting based flow cytometry; format: cell-based
L6 [4] = test: Induction of cell lysis in rat L6 cells stably expressing human full-length FGFR1c at 1 uM incubated for 1 hr by complement dependent cytotoxicity based CCK-8 assay relative to control; format: functional
[5] = Hepatotoxicity in BALB/c mouse xenografted with human NCI-H1581 cells assessed as change in AST level at 20 mg/kg,SC administrated once daily for 12 days; format: toxicity, organism-based; conditions: in vivo, 288 h, time 12 day
L6 [6] = test: Binding affinity to human full-length wild type FGFR1c stably expressed in rat L6 cells assessed as increase in green fluorescence signal incubated for 1 hr by Alexa-488 staining based confocal fluorescence microscopic analysis; format: cell-based
[7] = Toxicity in BALB/c mouse xenografted with human NCI-H1581 cells assessed as change in spleen weight at 20 mg/kg,SC administrated once daily for 12 days; format: organism-based; conditions: in vivo, 288 h, time 12 day
[8] = Toxicity in BALB/c mouse xenografted with human NCI-H1581 cells assessed as inflammation in kidney at 20 mg/kg,SC administrated once daily for 12 days by hematoxylin and eosin staining based analysis; format: organism-based; conditions: in vivo, 288 h, time 12 day
[9] = Toxicity in BALB/c mouse xenografted with human NCI-H1581 cells assessed as cell necrosis in liver at 20 mg/kg,SC administrated once daily for 12 days by hematoxylin and eosin staining based analysis; format: organism-based; conditions: in vivo, 288 h, time 12 day
[10] = Toxicity in BALB/c mouse xenografted with human NCI-H1581 cells assessed as change in kidney weight at 20 mg/kg,SC administrated once daily for 12 days; format: organism-based; conditions: in vivo, 288 h, time 12 day

CC(C)C[C@H](NC(=O)[C@H](C)NC(=O)[C@@H](NC(=O)[C@H](Cc1ccc(O)cc1)NC(=O)[C@H](Cc1c[nH]c2ccccc12)NC(=O)[C@H](CO)NC(=O)[C@H](CO)NC(=O)[C@H](Cc1ccc(O)cc1)NC(=O)[C@H](CCCCN)NC(=O)[C@H](CCCNC(=N)N)NC(=O)[C@H](CO)NC(=O)[C@H](CCCNC(=N)N)NC(=O)[C@@H](N)Cc1ccc(O)cc1)C(C)C)C(=O)N[C@@H](CCCCN)C(=O)N[C@@H](CCCNC(=N)N)C(=O)N[C@@H](CC(C)C)C(=O)N1CCC[C@H]1C(=O)N[C@@H](CCC(=O)O)C(=O)N[C@H](C(=O)NCC(=O)NCC(=O)NCC(=O)NCCOCCOCCOCCOCCOCCOc1ccc([N+](=O)[O-])cc1[N+](=O)[O-])[C@@H](C)O (H-YRSRKYSSWYVALKRLPETGGG-X1)
Activity (NCI-H1581): 44.5%
Activity [1]: Non-Toxic
Tmax [2]: 1.67 h
Activity (L6 [3]): Dose-Dependent Effect
Activity (L6 [4]): 45.8%
Activity [5]: Non-Toxic
Activity (L6 [6]): Active
Activity [7]: Non-Toxic
Activity [8]: Non-Toxic
Activity [9]: Non-Toxic
Activity [10]: Non-Toxic
